Values after ≈ are worked out from the molar mass of the structure shown. Where a name gives a salt, the structure may show the parent alone. Read-outs that look alike come from different tables or passages of the source.
What was measured:
[1] = tested on: Escherichia coli P-5101; assay: In vivo efficacy against systemic infection; set-up: species or system male mice (ddY); conditions: P5101, in Mus musculus, 168 h, sc, twice, about 5 minutes and 6 hours after infection, read-out: ED50 (median effective dose)
Protocol: (§1) The contents in the vials (No. A and No. C) prepared in Example 17 were each dissolved in deionized water, and injections having various concentrations were prepared.
(§2) Compounds A, B, F, G, H and M were dissolved in deionized water.
(§3) Mice: male mice (ddY) weighting about 20g
(§4) Intraperitoneal infection with 50 to
(§5) of a bacterial suspension in tryptosoy
(§6) twice, about 5 minutes and 6 hours after
(§7) calculated in accordance with the Behrens-Kaerber method [Arch. Exp. Path

[2] = tested on: Pseudomonas aeruginosa No. 12; assay: In vivo efficacy against systemic infection; set-up: species or system male mice (ddY); conditions: NO.12, in Mus musculus, sc, twice, about 5 minutes and 6 hours after infection, read-out: ED50 (median effective dose)
Protocol: as §1, §2, §3
Pseudomonas aeruginosa No. 12;
as §4, §5, §6
Pseudomonas aeruginosa No. 12
as §7

[3] = tested on: Salmonella enteritidis No. 1891; assay: In vitro antibacterial activity (MIC); type: cell-based; conditions: Salmonella enterica; Salmonella enteritidis No. 1891; read-out: minimum inhibitory concentration (MIC)
Source text: (§8) In vitro antibacterial activity against 20 strains of bacteria
(§9) The numerals in the table show minimum inhibitory concentrations (MIC)

[4] = tested on: Shigella flexneri 4a P-330; assay: In vitro antibacterial activity (MIC); type: cell-based; conditions: 4AP330, read-out: minimum inhibitory concentration (MIC)
Source text: as §8, §9

[5] = tested on: Escherichia coli P-140a; assay: In vitro antibacterial activity (MIC); type: cell-based
Source text: as §8, §9

[6] = tested on: Staphylococcus aureus No. 50774; assay: In vitro antibacterial activity (MIC); type: cell-based; conditions: Staphylococcus aureus No. 50774; read-out: minimum inhibitory concentration (MIC)
Source text: as §8, §9

[7] = tested on: Salmonella typhimurium S-9; assay: In vitro antibacterial activity (MIC); type: cell-based; conditions: Salmonella enterica; Salmonella typhimurium S-9; read-out: minimum inhibitory concentration (MIC)
Source text: as §8, §9

[8] = tested on: Proteus mirabilis P-2381; assay: In vitro antibacterial activity (MIC); type: cell-based; conditions: Proteus mirabilis, P2381, read-out: minimum inhibitory concentration (MIC)
Source text: as §8, §9

[9] = tested on: Staphylococcus aureus 209P JC-1; assay: In vitro antibacterial activity (MIC); type: cell-based; conditions: read-out: minimum inhibitory concentration (MIC)
Source text: as §8, §9

[10] = tested on: Enterobacter cloacae P-2540; assay: In vitro antibacterial activity (MIC); type: cell-based; conditions: P2540; Enterobacter cloacae P-2540; read-out: minimum inhibitory concentration (MIC)
Source text: as §8, §9

[11] = tested on: Escherichia coli NIHJ JC-2; assay: In vitro antibacterial activity (MIC); type: cell-based; conditions: Escherichia coli, NIHJJC2, read-out: minimum inhibitory concentration (MIC)
Source text: as §8, §9

[12] = tested on: Streptococcus pyogenes 65A; assay: In vitro antibacterial activity (MIC); type: cell-based; conditions: read-out: minimum inhibitory concentration (MIC)
Source text: as §8, §9

[13] = tested on: Klebsiella pneumoniae No. 13; assay: In vitro antibacterial activity (MIC); type: cell-based; conditions: Klebsiella pneumoniae, NO.13, read-out: minimum inhibitory concentration (MIC)
Source text: as §8, §9

[14] = tested on: Serratia mercescens IFO 3736; assay: In vitro antibacterial activity (MIC); type: cell-based; conditions: Serratia, IFO3736, read-out: minimum inhibitory concentration (MIC)
Source text: as §8, §9

[15] = tested on: Proteus morganii Kono; assay: In vitro antibacterial activity (MIC); type: cell-based; conditions: Morganella morganii, read-out: minimum inhibitory concentration (MIC)
Source text: as §8, §9

[16] = tested on: Pseudomonas aeruginosa No.12; assay: In vitro antibacterial activity (MIC); type: cell-based; conditions: Pseudomonas aeruginosa, NO.12, read-out: minimum inhibitory concentration (MIC)
Source text: as §8, §9

[17] = tested on: Pseudomonas aeruginosa Tsuchijima; assay: In vitro antibacterial activity (MIC); type: cell-based; conditions: Pseudomonas aeruginosa Tsuchijima; read-out: minimum inhibitory concentration (MIC)
Source text: as §8, §9

[18] = tested on: Escherichia coli P-5101; assay: In vitro antibacterial activity (MIC); type: cell-based
Source text: as §8, §9

[19] = tested on: Corynebacterium pyogenes C-21; assay: In vitro antibacterial activity (MIC); type: cell-based; conditions: Rhodococcus (subgen. Prescottella) equi, C21; Corynebacterium pyogenes C-21; read-out: minimum inhibitory concentration (MIC)
Source text: as §8, §9

[20] = tested on: Proteus rettgeri P-2503; assay: In vitro antibacterial activity (MIC); type: cell-based; conditions: Providencia rettgeri, P2503, read-out: minimum inhibitory concentration (MIC)
Source text: as §8, §9

[21] = tested on: Shigella flexneri 2a; assay: In vitro antibacterial activity (MIC); type: cell-based; conditions: read-out: minimum inhibitory concentration (MIC)
Source text: as §8, §9

[22] = tested on: Streptococcus faecalis P-2473; assay: In vitro antibacterial activity (MIC); type: cell-based; conditions: Enterococcus faecalis, P2473, read-out: minimum inhibitory concentration (MIC)
Source text: as §8, §9

[23] = tested on: Staphylococcus aureus No. 50774; assay: In vivo efficacy against systemic infection; set-up: species or system male mice (ddY); conditions: NO.50774, in Mus musculus, 336 h, sc, twice, about 5 minutes and 6 hours after infection, read-out: ED50 (median effective dose)
Protocol: as §1
Compounds A, B, F, G, H and M were dissolved in deionized water. Compounds C, D, E and J were dissolved in an aqueous solution of sodium carbonate (pH 8-9) to prepare injections of various concentrations.
Each of the injections was administered to mice under the conditions described below, and the median effective doses (ED50) obtained are shown in Table II.
as §3
Staphylococcus aureus No. 50774;
Intravenous infection with 50 to 100
LD50 (about 5 × 10^8cells/mouse) of a
bacterial suspension in saline.
as §6
Staphylococcus aureus No. 50774 14 days
The numerals in the table show ED50 (mg/kg). ED50 values were
as §7

[24] = in vivo; conditions: mouse

| Structure (SMILES) | ED50 [1] [mg/kg] | ED50 [2] [mg/kg] | MIC [3] [µg/mL] | MIC [4] [µg/mL] | minimum inhibitory concentration (MIC) [5] [µg/mL] | MIC [6] [µg/mL] | MIC [7] [µg/mL] | MIC [8] [µg/mL] | MIC [10] [µg/mL] | MIC [11] [µg/mL] | MIC [13] [µg/mL] | MIC [14] [µg/mL] | MIC [15] [µg/mL] | MIC [16] [µg/mL] | MIC [17] [µg/mL] | MIC [19] [µg/mL] | MIC [20] [µg/mL] | MIC [22] [µg/mL] | ED50 [23] [mg/kg] | LD50 at 168 h ([24]; sc) [mg/kg] | also measured |
| --- | --- | --- | --- | --- | --- | --- | --- | --- | --- | --- | --- | --- | --- | --- | --- | --- | --- | --- | --- | --- | --- |
| CC1(C)S[C@@H]2[C@H](NC(=O)[C@H](NC(=O)c3c[nH]c4nc(N5CCN(C=O)CC5)ncc4c3=O)c3ccccc3)C(=O)N2[C@H]1C(=O)O [Compound B, D-α-[5,8-Dihydro-2-(4-formyl-1-piperazinyl)-5-oxopyrido[2,3-d]pyrimidine-6-carboxamido]-benzylpenicillin sodium salt] | 21 | 17.7 | 0.78 | 6.25 | 12.5 | 0.78 | 1.56 | 3.13 | 12.5 | 6.25 | 6.25 | 12.5 | 3.13 | 6.25 | 1.56 | 1.56 | 6.25 | 6.25 | 3.4 | < 4000 | MIC ([9]; Staphylococcus aureus, 209P): 0.78 µg/mL; MIC ([12]; Streptococcus pyogenes, 65A): < 0.1 µg/mL; MIC ([18]; Escherichia coli, P5101, read-out: minimum inhibitory concentration (MIC)): 3.13 µg/mL; MIC [21]: 3.13 µg/mL; LD50 at 168 h ([24]; iv): 2830 mg/kg |
| CN(C)c1ncc2c(=O)c(C(=O)N[C@@H](C(=O)N[C@@H]3C(=O)N4[C@@H]3SC(C)(C)[C@@H]4C(=O)O)c3ccc(O)cc3)c[nH]c2n1 [Compound E, D-α-(5,8-Dihydro-2-dimethylamino-5-oxopyrido[2,3-d]pyrimidine-6-carboxamido)-p-hydroxybenzylpenicillin] | 11 | 32.4 | 0.78 (≈ 1.34 µM) | 6.25 (≈ 10.7 µM) | 25 (≈ 43 µM) | 0.78 (≈ 1.34 µM) | 1.56 (≈ 2.68 µM) | 3.13 (≈ 5.38 µM) | 12.5 (≈ 21.5 µM) | 6.25 (≈ 10.7 µM) | 12.5 (≈ 21.5 µM) | 6.25 (≈ 10.7 µM) | 6.25 (≈ 10.7 µM) | 3.13 (≈ 5.38 µM) | 1.56 (≈ 2.68 µM) | 0.78 (≈ 1.34 µM) | 6.25 (≈ 10.7 µM) | 3.13 (≈ 5.38 µM) | ~10 | 1070 | MIC ([9]; Staphylococcus aureus 209P JC-1): 0.78 µg/mL (≈ 1.34 µM); MIC ([12]; Streptococcus pyogenes 65A): 0.025 µg/mL (≈ 0.043 µM); MIC ([18]; P5101, Escherichia coli P-5101, read-out: minimum inhibitory concentration (MIC)): 1.56 µg/mL (≈ 2.68 µM); selectivity ratio ([24]; sc): 33 |

Reference: patent US4103011A, “Novel penicillin compounds and process for preparation thereof” (priority 1976, dated 1978)
